Test results as given in patent US20190070170A1, “METHOD OF S[…]-1” (Macau University of Science and Technology, priority 2017, published 2019).

What was measured:
mPGES-1 = mPGES-1 protein expression in hind paws of CIA DBA/1 mice; format: in vivo; settings: SIN 100 mg/kg i.p. or MTX 10 mg/kg/week p.o.
Description: (§1) Female DBA/1 mice (8-9 weeks old) were purchased from Shanghai SiLaike (SLAC) Laboratory Animal Company (Shanghai, China) and fed with a chow diet and water at room temperature. Equal volume of complete Freuend's adjuvant (CFA) and Bovine Type II Collagen (CII) were mixed and emulsified using a homogenizer (13,000 rpm) on ice. On day 0, DBA/1 mice were immunized by injecting 50 μl of CII in CFA in the tail, approximately 2 cm from the base of the tail. […] The incidence of joint swelling in each group was recorded every two days since drug treatment. […]
(§2) Frozen paws were pulverized in liquid nitrogen using a stainless steel mortar and pestle, then re-suspended in 8 volumes of ice-cold PBS from Invitrogen (San Diego, Calif., USA) with 2.6 mM DTT from Promega (Madison, Wis., USA) and 2×Complete Protease Inhibitor mixture from Roche (Mannheim, Germany), and homogenized on ice bath using a tissue homogenizer from T25 digital, IKA (Stanfen, Germany) at 10,000 rpm/min for 5 min. […] The protein concentrations were measured using a Bio-Rad protein assay kit (Hercules, Calif., USA). […]
(§3) Whole-cell and nuclear proteins were obtained using RIPA lysis buffer (CST, Boston, Mass., USA) and Nuclear and Cytoplasmic Extraction Reagents kit from Thermo Scientific (Asheville, N.C., USA), respectively. […] The levels of protein expression were measured using Odyssey v3.0 software from Li-COR (Lincoln, Nebr., USA).

p-cPLA2 = p-cPLA2 protein expression in IL-1β-stimulated A549 cells (western blotting); format: cell-based; settings: IL-1β with SIN or DEX for 48 h
Description: (§4) RAW264.7 and A549 cell lines were obtained from American Type Culture Collection (ATCC, Manassas, Va., USA) and maintained in DMEM (RAW264.7) or 1640 (A549) medium containing 10% FBS (Gibco-BRL, Grand Island, N.Y., USA) and antibiotics at 37° C. in a humidified atmosphere containing 5% CO2. RAW264.7 cells were plated in 6-well plates at a density of 4×10^5 cells and incubated for 24 h, then the cells were pretreated with different concentrations of SIN for 1 h before stimulating with LPS (100 ng/ml). A549 cells were seeded in 6-well plates at a density of 1×10^5 cells and incubated for 24 h, followed by pretreatment with SIN. A549 cells were then stimulated by IL-1β (1 ng/ml).
Whole-cell and nuclear proteins were obtained using RIPA lysis buffer (CST, Boston, Mass., USA) and Nuclear and Cytoplasmic Extraction Reagents kit from Thermo Scientific (Asheville, N.C., USA), respectively. For immunoblotting, proteins from whole-cell, cytoplasm, nuclear, and microsomal fractions were separated on SDS-PAGE, then transferred onto a nitrocellulose membrane from GE Healthcare Life Sciences (Buckinghamshire, UK), and incubated with 5% skimmed milk at room temperature for 1 h. […] The levels of protein expression were measured using Odyssey v3.0 software from Li-COR (Lincoln, Nebr., USA).

NO = NO production in LPS-stimulated RAW264.7 cells (Griess reagent); format: cell-based, mouse; settings: pretreatment 1 h, LPS 100 ng/ml 18 h
Description: as §4
RAW264.7 cells and rat peritoneal macrophages were seeded in a 96-well plate at density of 1.4×10^4 and 1.5×10^5 cells, respectively. Various concentration of SIN was added to the cells for 1 hour before LPS stimulation. After stimulation with LPS for 18 h (RAW264.7 cells) or 24 h (rat peritoneal macrophages), MTT solution was added to each well and incubated for another 4 hours. 100 μl 10% SDS-HCl solution was added to each well for overnight to dissolve the formazan dye. The optical density was measured at 570 nm against a reference wavelength of 650 nm using a microplate UV/VIS spectrophotometer (Tecan, Mannedorf, Switzerland). […]

PGE2 = experiment: RNA interference experiment of mPGES-1: PGE2 production in mPGES-1 knockdown RAW264.7 cells; format: cell-based, mouse; settings: mPGES-1 siRNA RAW264.7 cells; SIN 640 μM or DEX 0.5 μM 1 h, LPS 10 ng/mL 18 h
Description: RAW264.7 cells were transfected with ON-TARGETplus SMARTpool mPGES-1 siRNA (mPGES-1 siRNA) or nonspecific siRNA (NS siRNA) using HiPerFect transfection reagent according to the manufacturer's recommended protocols. After 24 h of transfection, the cells were treated with or without SIN (640 μM) or DEX (0.5 μM) in complete growth medium. After 1 h, all groups were stimulated with LPS (10 ng/mL) for 18 h except the control group. Then the cell culture media were collected and stored at −20° C. for later analysis of the levels of PGE2. Cells were harvested for qRT-PCR, the mouse primers used are listed as follows: […]

COX-1 = COX-1 protein expression in hind paws of CIA DBA/1 mice; format: in vivo; settings: SIN 100 mg/kg i.p.
Description: as §1, §2, §3

**Q.** For `COC1=C[C@@H]2[C@@H]3Cc4ccc(OC)c(O)c4[C@]2(CCN3C)CC1=O` [SIN, sinomenine], which “mPGES-1 protein expression in inflamed hind paws” value (mPGES-1) is on record?
**A.** The value was “significantly decreased”.

**Q.** What about the p-cPLA2 protein expression (p-cPLA2) of the same molecule?
**A.** Its p-cPLA2 protein expression is “did not suppress”.

**Q.** What about the “NO production (nitrite)” value (NO) of the same molecule?
**A.** Its value is “significantly inhibited”.

**Q.** And the “change of the compound's inhibitory effect on PGE2 production by mPGES-1 knockdown” value (PGE2)?
**A.** Its value is “not affected”.

**Q.** And the “COX-1 expression in paw tissues” value (COX-1)?
**A.** The value was “did not produce observable changes”.
